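These data come from cells grown in 96-well plates and exposed to compound for 48 hours at five concentrations. Here, GI50 denotes the concentration required for 50% inhibition of growth. TGI is the concentration that stops growth completely.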
Legend:
Test in all cases: NCI anticancer screen, dose series, 48 h
MOLT-4 leukemia = system: MOLT-4 leukemia
UACC-257 melanoma = system: UACC-257 melanoma
HT29 colon = system: HT29 colon
COLO 205 colon = system: COLO 205 colon
HL-60(TB) leukemia = system: HL-60(TB) leukemia
RXF 393 renal = system: RXF 393 renal
NCI-H460 lung = system: NCI-H460 lung
SNB-75 CNS = system: SNB-75 CNS

SMILES | TGI (MOLT-4 leukemia) [µM] | TGI (UACC-257 melanoma) [µM] | TGI (HT29 colon) [µM] | TGI (COLO 205 colon) [µM] | TGI (HL-60(TB) leukemia) [µM] | TGI (RXF 393 renal) [µM] | TGI (NCI-H460 lung) [µM] | TGI (SNB-75 CNS) [µM] | GI50 (MOLT-4 leukemia) [µM]
OCC(O)COCn1cc(Cn2ncc3c(SCc4ccccc4)ncnc32)nn1 (stereo unspecified) | > 100 | > 100 | > 100 | > 100 | > 100 |  |  |  | 
O=C1CSCC(=O)Nc2ccccc2N1 | > 100 | > 100 | > 100 | > 100 | > 100 | > 100 | > 100 |  | 
C/C=C1/CC(C(=O)OC)N(C(=O)OCc2ccccc2)C1=S (stereo unspecified) | > 100 | > 100 | > 100 | > 100 |  | > 100 | 38.8 | > 100 | 
COC(=O)c1c(O)c(C#N)c2[nH]c3ccccc3n2c1=O | > 100 | > 100 | > 100 | > 100 | > 100 | > 100 | > 100 | > 100 | 
O=C1c2ccccc2-c2nnc3c(c21)Cc1ccccc1C3 | > 10 |  | > 10 | > 10 | > 10 | > 10 | > 10 | > 10 | 
C#CCN(Cc1ccc2nc(-c3ccccc3)c(Cl)nc2c1)c1ccc(F)cc1 | 44.6 | > 100 | > 100 | > 100 | 87.2 |  | > 100 | > 100 | 
COC(=O)c1cc2ccc(O)c(O)c2cn1 | > 100 | 29.6 |  | 33.1 | > 100 | 32.7 | 37.4 | 36.6 | 4.6
CCOC(=O)c1nc2ccccc2nc1Oc1cc(OC)cc(OC)c1 | > 100 | > 100 | > 100 | > 100 |  | > 100 | > 100 |  | 
CC(C#N)(c1ccccc1)N(CCc1ccccc1)C(=O)Oc1ccccc1 (stereo unspecified) | > 100 | > 100 | > 100 | > 100 | > 100 | > 100 |  | 81.6 | 
CCC(C)N1CN(c2ccccc2)C2(CCN(CC3COc4ccccc4O3)CC2)C1=O (stereo unspecified) | 66.4 | 65.9 | 40.3 | 47.7 | 34.4 | 38.1 |  | > 100 | 
COc1ccc2c(-c3csc(-c4c[nH]c5ccc(Br)cc45)n3)c[nH]c2c1 | > 100 | > 100 | > 100 | > 100 |  | 27.9 | > 100 |  | 
COc1ccc2c(O)c(Oc3ccc(Cl)cc3)c(=O)oc2c1 | > 100 | > 100 | > 100 |  | > 100 | > 100 | > 100 | > 100 | 
COC(=NC(C)C)NC(C)C | > 100 |  |  | > 100 | > 100 |  | > 100 | > 100 | 
O=C1Cc2c(-c3cccs3)cc(-c3ccccc3)nc2-c2ccccc2N1 | > 100 | > 100 | 43.9 | > 100 |  | > 100 | > 100 | 41.9 | 
CC(C)[Si](OC12CCC(CC1O)CC2CO)(C(C)C)C(C)C (stereo unspecified) | 44.6 | 26.6 | 28.9 | 42.2 | 6.73 |  | 25.2 | 26.8 | 
O=C(c1ccc2ccccc2c1)C1(I)S(=O)(=O)OCCOS1(=O)=O | > 100 |  | > 100 | > 100 | > 100 |  | > 100 |  | 
COc1cc([C@@H]2c3cc4c(cc3[C@H](OC3OC5COC(c6ccco6)OC5C(O)C3O)C3COC(=O)[C@@H]32)OCO4)cc(OC)c1OC (stereo partly specified) |  | > 100 | > 100 | > 31.3 | > 100 | > 100 |  | > 100 | 
CC(C)OC(=O)NCCn1cc(-c2ccccc2)nn1 | > 100 | > 100 | > 100 | > 100 | > 100 |  | > 100 | > 100 | 
O=C(O)c1ccccc1CN1CCCC(C(=O)O)C1 (stereo unspecified) | > 100 | > 100 | > 100 | > 100 |  | > 100 | > 100 | > 100 | 
O=C(O)c1cc(CCc2ccc(O)c(O)c2)ccc1O | > 100 | > 100 | > 100 | > 100 | 59.2 |  | > 100 | > 100 | 
C=CCOC(=O)Cn1cnc2c(N)ncnc21 | > 100 | > 100 | > 100 | > 100 | > 100 |  | > 100 | > 100 | 
CN(C)CCNc1ccc(NCC[N+](C)(C)Cc2ccc([N+](=O)[O-])cc2)c2c1C(=O)c1c(O)ccc(O)c1C2=O | 8.8 |  | > 100 | > 100 | > 100 |  |  | > 100 | 
N#Cc1cc2c(cc1C#N)SCCSCCCSCCS2 | > 100 | > 100 | > 100 | > 100 |  | 18.1 | > 53.8 | 18.2 | 
CN(Cc1cnc2nc(N)nc(N)c2n1)c1ccc(C(=O)NCCCS(=O)(=O)O)cc1 | > 100 | > 100 | > 100 | > 100 |  |  | > 100 | > 100 | 
Cc1cn([C@@H]2O[C@H](CO[Si](C)(C)C(C)(C)C)[C@]3(O[C@H]3C(=O)NO)[C@H]2O[Si](C)(C)C(C)(C)C)c(=O)[nH]c1=O | 4.62 | 6.92 | 2.92 |  | 3.57 | 3.34 | 3.15 | 3.71 | 
COC(=O)C(=O)C(C(=O)C(=O)Nc1ccc(Cl)c(Cl)c1)c1nc2ccc(C(=O)c3ccccc3)cc2[nH]c1=O (stereo unspecified) | > 100 | > 100 | > 100 |  | > 100 | > 100 |  | > 100 | 
O=C(CNc1ccccc1[N+](=O)[O-])Nn1cnc2ccc(S(=O)(=O)Nc3ccccc3[N+](=O)[O-])cc2c1=O | > 100 | > 100 | > 100 | > 100 | > 100 |  | > 100 | > 100 | 
C[N+]1(C)C2CC(OC(=O)C(CO)c3ccccc3)CC1C1OC12 (stereo unspecified) | > 100 | > 100 | > 100 | > 100 | > 100 | > 100 |  | > 100 | 
O=C(CC(NC(=O)OCc1ccccc1)C(=O)NC1Cc2ccccc2C1=O)OCc1ccccc1 (stereo unspecified) | > 100 | > 100 | > 100 |  |  | > 100 | > 100 | > 100 | 
